Results published in patent publication US7605163B2, “Benzoyl-piperazine derivatives” (Hoffmann-La Roche Inc., priority 2003, dated 2009).

Molecular target: T1, mGlyT-1b (Mus musculus, UniProt P28571)
T1 construct: host or cells: Flp-in-CHO cells
T1 sequence (P28571 1-651 isoform P28571-2): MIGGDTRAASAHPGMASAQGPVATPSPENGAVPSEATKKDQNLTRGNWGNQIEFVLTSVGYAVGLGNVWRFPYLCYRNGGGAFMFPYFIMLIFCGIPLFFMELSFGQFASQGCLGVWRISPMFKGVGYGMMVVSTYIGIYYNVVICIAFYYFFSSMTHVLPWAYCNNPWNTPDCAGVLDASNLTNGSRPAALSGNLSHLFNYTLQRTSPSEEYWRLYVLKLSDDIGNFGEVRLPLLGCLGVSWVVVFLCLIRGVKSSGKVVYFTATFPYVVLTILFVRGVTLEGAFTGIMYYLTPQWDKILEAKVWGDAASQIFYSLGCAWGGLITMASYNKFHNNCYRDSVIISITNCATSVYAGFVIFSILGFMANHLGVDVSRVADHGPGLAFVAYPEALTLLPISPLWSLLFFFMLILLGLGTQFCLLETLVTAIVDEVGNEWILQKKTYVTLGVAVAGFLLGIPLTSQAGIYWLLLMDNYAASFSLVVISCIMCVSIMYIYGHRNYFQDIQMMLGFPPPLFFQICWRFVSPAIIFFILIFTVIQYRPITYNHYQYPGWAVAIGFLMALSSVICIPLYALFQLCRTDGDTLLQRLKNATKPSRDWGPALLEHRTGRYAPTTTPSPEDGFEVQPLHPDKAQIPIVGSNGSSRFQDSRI
Experiment: Glycine Uptake Inhibition Assay (mGlyT-1b)
Type: cell-based
Conditions: [3H]-glycine uptake inhibition at GlyT-1, Flp-in-CHO cells transfected with mGlyT-1b cDNA
Protocol: DMEM complete medium: Nutrient mixture F-12 (Gibco Life-technologies), fetal bovine serum (FBS) 5%, (Gibco life technologies), Penicillin/Streptomycin 1% (Gibco life technologies), Hygromycin 0.6 mg/ml (Gibco life technologies), Glutamine 1 mM Gibco life technologies)
Uptake buffer (UB): 150 mM NaCl, 10 mM Hepes-Tris, pH 7.4, 1 mM CaCl2, 2.5 mM KCl, 2.5 mM MgSO4, 10 mM (+) D-glucose. Flp-in™-CHO (Invitrogen Cat n^o R758-07) cells stably transfected with mGlyT1b cDNA.
Glycine Uptake Inhibition Assay (mGlyT-1b)
On day 1 mammalian cells, (Flp-in™-CHO), transfected with mGlyT-1b cDNA, were plated at the density of 40,000 cells/well in complete F-12 medium, without hygromycin in 96-well culture plates. On day 2, the medium was aspirated, and the cells were washed twice with uptake buffer (UB). The cells were then incubated for 20 min at 22° C. with either (i) no potential competitor, (ii) 10 mM non-radioactive glycine, (iii) a concentration of a potential inhibitor. A range of concentrations of the potential inhibitor was used to generate data for calculating the concentration of inhibitor resulting in 50% of the effect (e.g. IC50, the concentration of the competitor inhibiting glycine uptake of 50%).
A solution was then immediately added containing [^3H]-glycine 60 nM (11-16 Ci/mmol) and 25 μM non-radioactive glycine. The plates were incubated with gentle shaking, and the reaction was stopped by aspiration of the mixture and washing (three times) with ice-cold UB. The cells were lysed with scintillation liquid, shaken 3 hours and the radioactivity in the cells counted using a scintillation counter.

SMILES	IC50
O=C(c1cc([N+](=O)[O-])ccc1OC1CCOCC1)N1CCN(c2ccc(C(F)(F)F)cc2)CC1 [Example 95, [5-Nitro-2-(tetrahydro-pyran-4-yloxy)-phenyl]-[4-(4-trifluoromethyl-phenyl)-piperazin-1-yl]-methanone]	35 nM
CCS(=O)(=O)c1ccc(OC(C)C)c(C(=O)N2CCN(c3ccc(C(F)(F)F)cc3F)CC2)c1 [compound 393]	32 nM
CC(=O)c1ccc(N2CCN(C(=O)c3cc(S(C)(=O)=O)ccc3OCC3CC3)CC2)c(F)c1 [Example 15, 1-{4-[4-(2-cyclopropylmethoxy-5-methanesulfonyl-benzoyl)-piperazin-1-yl]-3-fluoro-phenyl}-ethanone]	15 nM
CC(C)COc1ccc(S(C)(=O)=O)cc1C(=O)N1CCN(c2ccc(C#N)c(F)c2F)CC1 [compound 128]	20 nM
CS(=O)(=O)c1ccc(OC2CCCCC2)c(C(=O)N2CCN(c3ccc(S(=O)(=O)C4CC4)cc3F)CC2)c1 [compound 574]	34 nM
CNS(=O)(=O)c1ccc(OC(C)C(F)(F)F)c(C(=O)N2CCN(c3ccc(C(F)(F)F)cc3)CC2)c1 (racemic) [compound 554]	19 nM
CCS(=O)(=O)c1ccc(N2CCN(C(=O)c3cc(S(C)(=O)=O)ccc3OC3CCCCC3)CC2)c(F)c1 [compound 564]	41 nM
CS(=O)(=O)c1ccc(OC2CCCC2)c(C(=O)N2CCN(c3ccc(C(F)(F)F)nc3)CC2)c1 [compound 430]	37 nM
CC(Oc1ccc(S(C)(=O)=O)cc1C(=O)N1CCN(c2ccc(C(F)(F)F)cn2)CC1)C(F)(F)F (racemic) [compound 408]	37 nM
CS(=O)(=O)c1ccc(OCC(F)(F)F)c(C(=O)N2CCN(c3ccc(Cl)c(Cl)c3)CC2)c1 [compound 251]	32 nM
CNS(=O)(=O)c1ccc(OC2CCCC2)c(C(=O)N2CCN(c3ccc(C#N)cc3F)CC2)c1 [compound 507]	31 nM
CS(=O)(=O)c1ccc(OC2CCCC2)c(C(=O)N2CCN(c3ccc(C(F)(F)F)cc3C#N)CC2)c1 [compound 373]	35 nM
CC(Oc1ccc(S(C)(=O)=O)cc1C(=O)N1CCN(c2ccc(C#N)cc2)CC1)C(F)(F)F (racemic) [compound 298]	21 nM
CCC(C)Oc1ccc(S(C)(=O)=O)cc1C(=O)N1CCN(c2ccc(C#N)cc2F)CC1 (racemic) [compound 321]	18 nM
CS(=O)(=O)c1ccc(OCC2CCC2)c(C(=O)N2CCN(c3ccc(C(F)(F)F)cc3)CC2)c1 [compound 139]	24 nM
CC(C)COc1ccc(S(C)(=O)=O)cc1C(=O)N1CCN(c2cc(F)c(C#N)c(F)c2)CC1 [compound 169]	12 nM
CNS(=O)(=O)c1ccc(OCC(C)C)c(C(=O)N2CCN(c3ccc(C#N)cc3)CC2)c1 [compound 488]	39 nM
CCC(C)Oc1ccc(S(C)(=O)=O)cc1C(=O)N1CCN(c2ccc(C#N)c(F)c2)CC1 (racemic) [compound 322]	28 nM
CS(=O)(=O)c1ccc(OCC2CCC2)c(C(=O)N2CCN(c3ccc(C#N)cc3)CC2)c1 [compound 136]	27 nM
CS(=O)(=O)c1ccc(OCC(F)(F)C(F)(F)F)c(C(=O)N2CCN(c3ccc(C#N)c(F)c3)CC2)c1 [compound 180]	36 nM
CS(=O)(=O)c1ccc(OC2CCCC2)c(C(=O)N2CCN(c3cc(F)c(C#N)c(F)c3)CC2)c1 [compound 172]	19 nM
CC(C)COc1ccc([N+](=O)[O-])cc1C(=O)N1CCN(c2ccc(C(F)(F)F)cc2)CC1 [Example 70, (2-Isobutoxy-5-nitro-phenyl)-[4-(4-trifluoromethyl-phenyl)-piperazin-1-yl]-methanone]	8 nM
CC(=O)c1ccc(N2CCN(C(=O)c3cc(S(C)(=O)=O)ccc3OC3CCCCC3)CC2)c(F)c1 [compound 281]	21 nM
CNS(=O)(=O)c1ccc(OCC(C)(C)C)c(C(=O)N2CCN(c3ccc(C(F)(F)F)cc3)CC2)c1 [compound 525]	21 nM
CC(C)(C)Oc1ccc(S(C)(=O)=O)cc1C(=O)N1CCN(c2cc(F)c(C#N)cc2F)CC1 [compound 234]	43 nM

SMILES	IC50
CS(=O)(=O)c1ccc(OC2CCCCC2)c(C(=O)N2CCN(c3ccc(C#N)cc3)CC2)c1 [compound 282]	27 nM
CC(Oc1ccc(S(C)(=O)=O)cc1C(=O)N1CCN(c2ccc(Br)cn2)CC1)C(F)(F)F (racemic) [compound 435]	29 nM
CS(=O)(=O)c1ccc(OC2CCCCC2)c(C(=O)N2CCN(c3ccc(C(F)(F)F)cc3)CC2)c1 [compound 285]	42 nM
CNS(=O)(=O)c1ccc(OCC2CC2)c(C(=O)N2CCN(c3ccc(C(F)(F)F)cc3)CC2)c1 [compound 529]	13 nM
CC(C)(C)COc1ccc(S(C)(=O)=O)cc1C(=O)N1CCN(c2ccc(C(F)(F)F)cc2)CC1 [compound 293]	34 nM
CC(=O)c1ccc(N2CCN(C(=O)c3cc(S(C)(=O)=O)ccc3OC(C)C)CC2)c(F)c1 [Example 1, 1-{3-fluoro-4-[4-(2-isopropoxy-5-methanesulfonyl-benzoyl)-piperazin-1-yl]-phenyl}-ethanone]	39 nM
CCC(C)Oc1ccc(S(C)(=O)=O)cc1C(=O)N1CCN(c2ccc(C(F)(F)F)cc2F)CC1 (racemic) [compound 324]	39 nM
CC(=O)c1ccc(N2CCN(C(=O)c3cc(S(C)(=O)=O)ccc3OC3CCC3)CC2)c(F)c1 [compound 311]	45 nM
CC(C)(C)COc1ccc(S(C)(=O)=O)cc1C(=O)N1CCN(c2ccc(C(F)(F)F)c(F)c2)CC1 [compound 295]	16 nM
CS(=O)(=O)c1ccc(OCC(F)(F)C(F)F)c(C(=O)N2CCN(c3ccc(C(F)(F)F)cc3F)CC2)c1 [compound 212]	29 nM
CC(Oc1ccc(S(C)(=O)=O)cc1C(=O)N1CCN(c2ccc(C#N)c(F)c2)CC1)C(F)(F)F (racemic) [compound 300]	16 nM
CS(=O)(=O)c1ccc(OCC2CCC2)c(C(=O)N2CCN(c3ccc(C#N)c(F)c3F)CC2)c1 [compound 145]	15 nM
CNS(=O)(=O)c1ccc(OC2CCC2)c(C(=O)N2CCN(c3ccc(C(F)(F)F)cc3)CC2)c1 [compound 528]	15 nM
CC(Oc1ccc(S(C)(=O)=O)cc1C(=O)N1CCN(c2ncc(C(F)(F)F)cc2Cl)CC1)C(F)(F)F (racemic) [compound 407]	27 nM
CNS(=O)(=O)c1ccc(OCC2CCC2)c(C(=O)N2CCN(c3ccc(C(F)(F)F)cc3)CC2)c1 [compound 530]	5.7 nM
CNS(=O)(=O)c1ccc(OCC2CC2)c(C(=O)N2CCN(c3ccc(C#N)cc3F)CC2)c1 [compound 509]	30 nM
CC(C)(C)Oc1ccc(S(C)(=O)=O)cc1C(=O)N1CCN(c2ccc(C#N)cc2F)CC1 [compound 244]	42 nM
CC(C)COc1ccc(S(C)(=O)=O)cc1C(=O)N1CCN(c2ccc(S(=O)(=O)C(F)(F)F)cc2)CC1 [Example 330, (2-Isobutoxy-5-methanesulfonyl-phenyl)-[4-(4-trifluoromethanesulfonyl-phenyl)-piperazin-1-yl]-methanone]	18 nM
CS(=O)(=O)c1ccc(OCC(F)(F)C(F)F)c(C(=O)N2CCN(c3ccc(C#N)c(F)c3)CC2)c1 [compound 209]	41 nM
CC(C)Oc1ccc(S(C)(=O)=O)cc1C(=O)N1CCN(c2ccc(S(=O)(=O)C3CCCC3)cc2F)CC1 [compound 571]	50 nM
CNS(=O)(=O)c1ccc(OCC(C)(C)C)c(C(=O)N2CCN(c3ccc(C(C)=O)cc3F)CC2)c1 [compound 515]	40 nM
CNS(=O)(=O)c1ccc(OC(C)C)c(C(=O)N2CCN(c3ccc(C(F)(F)F)cc3)CC2)c1 [compound 526]	9 nM
CC(Oc1ccc(S(C)(=O)=O)cc1C(=O)N1CCN(c2ccc(C(F)(F)F)cc2)CC1)C(F)(F)F (single isomer, unassigned) [compound 469]	20 nM
CNS(=O)(=O)c1ccc(OC2CCCC2)c(C(=O)N2CCN(c3ccc(C(C)=O)cc3F)CC2)c1 [compound 517]	35 nM
CC(=O)c1ccc(N2CCN(C(=O)c3cc(S(C)(=O)=O)ccc3OCC3CCC3)CC2)c(F)c1 [compound 142]	34 nM
